Data from US5091311A, “The production of KSB-1939 macrolides using STR eptomyces hygroscopicus” (Kumiai Chemical Industry Co., Ltd., priority 1987, dated 1992).
In brackets after ≈: the same amount, converted by molar mass.

Key:
[1] = test system: Kanzawa spider mite; assay: Test 2 LC50 against Kanzawa spider mite; type: in vivo, Tetranychus kanzawai Kishida; conditions: 48 h; for LC50: Tetranychus kanzawai, following procedure of Test 1
Text: (§1) Each of polyethylene-made cups having a diameter of 55 mm and filled with water was covered with a lid through which a hole having a diameter of 10 mm was formed centrally. Absorbent cotton was suspended through the hole of the lid so as to absorb water. A sheet of filter paper was placed on the lid. Two bean leaf disks were place don the filter paper so that the disks were always supplied with water. Using a writing brush, adult female two spotted spider mites were inoculated at a rate of 10 mites per leaf disk. Twenty-four hours later, abnormal mites were removed, and wettable powders which had been prepared in accordance with the procedures of Preparation Examples 4-6 respectively were separately diluted to a predetermined concentration and sprayed to apply 2 mg/cm^2 of the respective agrochemical solutions. The test was conducted dually. Two days after the treatment with the agrochmical solutions, it was determined through a stereoscopic microscope whether the mites were alive or dead. The corrected mite mortality was calculated in accordance with the following equation. [formula]
(§2) Following the procedure of Test 1, tests were conducted with respect to Kanzawa spider mite and twospotted spider mite so that their LC50 values were determined. Milbemycin was used as a control.

[2] = test system: Twospotted Spider Mite; assay: Test 2 LC50 against twospotted spider mite; type: in vivo, Teranychus urticae Koch; conditions: 48 h; for LC50: Tetranychus urticae, following procedure of Test 1
Text: as §1, §2

[3] = Solubility; type: physicochemical; conditions: for Solubility in organic solvents: methanol, acetone, ethyl acetate, chloroform and hexane
[4] = Distinction of basic, acidic or neutral; type: physicochemical
[5] = test system: Twospotted Spider Mite; assay: Test 1 miticidal test against adult female twospotted spider mite; type: in vivo, Teranychus urticae Koch; conditions: Tetranychus urticae, 48 h, 2 days after treatment, read-out: Corrected mite mortality
Text: Test 1 (Miticidal Test against Adult Female Twospotted Spider Mite)
as §1

[6] = test system: Brown Rice Planthopper; assay: Test 3 insecticidal test against brown rice planthopper; type: in vivo, Nilaparvata lugens Stal; conditions: 120 h, larvae, 5 days, 25° C.
Description: Test 3 (Insecticidal Test against Brown Rice Planthopper) Wettable powders which had been prepared following the procedures of Preparation Examples 4-6 respectively were diluted with water to a predetermined concentration. Rice stems and leaves were dipped in the resultant solutions and then dried in the air. They were placed in test tubes. Ten brown rice planthopper larvae were placed in each test tube. The test tubes were plugged with absorbent cotton and the larvae were reared for 5 days in a constant-temperature chamber of 25° C. The test was conducted dually. The numbers of larvae were counted after the rearing, whereby mortality values of brown rice planthopper were calculated.

[7] = test system: Asiatic Rice Borer; assay: Test 5 insecticidal test against Asiatic rice borer; type: in vivo, Chilo suppressalis Walker; conditions: Chilo suppressalis, 120 h, 3rd-instar larvae, 5 days, 25° C.
Description: (§3) Test 5 (Insecticidal Test against Asiatic Rice Borer) Wettable powders which had been prepared following the procedures of Preparation Examples 4-6 respectively were diluted with water to a predetermined concentration. Sprouted unhulled rice seeds were dipped in the resultant solutions and then dried in the air. They were placed separately in polyethylene-made cups having a diameter of 55 mm. Ten 3rd-instar larvae of asiatic rice borer were placed in each cup. The larvae were reared for 5 days in a constant-temperature chamber of 25° C. The test was conducted dually. The numbers of dead larvae were counted after the rearing, whereby mortality values of asiatic rice borer were calculated.

[8] = test system: Haemonchus concurtus; assay: Test 10 test against sheep nematode; type: in vivo, Haemonchus concurtus (in sheep); conditions: oral drench into rumen, once
Description: Test 10 (Test against Sheep Nematode) A test was conducted using sheep which had been infected with Haemonchus concurtus. Namely, KSB-1939H4 of this invention was formulated into oral drenches. Four sheep which had been infected artificially with Haemonchus concurtus were administered with the compound by injecting the oral drenches into their rumens respectively. They were treated only once by a single dosage of 0.5 mg/kg-body weight or 1.0 mg/kg-body weight. Evaluation was conducted by comparing the number of eggs contained in feces excreted from each sheep before the treatment with that of eggs contained in feces excreted from the sheep after the treatment.

[9] = test system: microfilariae of Dirofilaria immitis; assay: microbe, parasite or virus in culture; conditions: 240 h, read-out: LD50
[10] = test system: Diamondback Moth; assay: Test 4 insecticidal test against diamondback moth; type: in vivo; conditions: Plutella xylostella, 120 h, 3rd-instar larvae, 5 days, 25° C.
Description: Test 4 (Insecticidal Test against Diamondback Moth)
as §3, with “Wettable” for “Test 5 (Insecticidal Test against Asiatic Rice Borer) Wettable”, “Cabbage leaves” for “Sprouted unhulled rice seeds”, “placed” for “placed separately”, “polyethylene-madecups” for “polyethylene-made cups”, “diamondback moth” for “asiatic rice borer”

[11] = Test 11 acute toxicity test (oral), mouse; parameters: species or system mouse (B6 C3 F1); conditions: in vivo, male
Text: (§4) Test 11 (Acute Toxicity Test)
(§5) The acute toxicity (oral) of one of the compounds of this invention was investigated using rats (male and female, F344, 7 weeks old) and mice (male and female, B6 C3 F1, 7 weeks old).

[12] = test system: Ancylostoma caninum; assay: Test 8 test against dog nematodes (Ancylostoma caninum); type: in vivo, Ancylostoma caninum (in dogs); conditions: dogs, once
Description: (§6) Test 8 (Test against Dog Nematodes) A test was conducted using dogs which had been infected naturally with Ancylostoma caninum or Toxocara canis. Namely, using 8 hybrid dogs of 2 months old, KSB-1939H2 according to this invention was administered subcutaneously at a dosage of 0.1 mg/kg-body weight or orally at a dosage of 0.5 mg/kg-body weight. Administration was effected only once. Evaluation was conducted by comparing the number of eggs contained in feces excreted from each dog before the treatment with that of eggs contained in feces excreted from the dog after the treatment.

[13] = test system: Toxocara canis; assay: Test 8 test against dog nematodes (Toxocara canis); type: in vivo, Toxocara canis (in dogs); conditions: dogs, once
Description: as §6

[14] = test system: Toxocara cati; assay: Test 9 test against cat nematode; type: in vivo, Toxocara cati (in cats); conditions: cats
Description: Test 9 (Test against Cat Nematode) A test was conducted using cats which had been infected naturally with Toxocara cati. Namely, 4 hybrid cats infected with the nematode were administered with KSB-1939H2 of this invention at a dosage of 0.05 mg/kg-body weight in the case of subcutaneous administration or at a dosage of 0.1 mg/kg-body weight in the case of oral administration. Evaluation was conducted by comparing the number of eggs contained in feces excreted from each cat before the treatment with that of eggs contained in feces excreted from the cat after the treatment.

[15] = Test 11 acute toxicity test (oral), rat; parameters: species or system rat (F344); conditions: in vivo, male
Text: as §4, §5

Compound | Solubility in organic solvents [3] | Solubility in water [3] | Distinction of basic, acidic or neutral [4] | mortality at 0.2 ppm [5] | mortality at 1 ppm [5] | mortality at 1 ppm [6] | mortality at 5 ppm [6] | mortality at 0.2 ppm [7] | mortality at 1 ppm [7] | LC50 [9] | LD50 [11] | also measured
Milbemycin [reference compound] |  |  |  |  |  |  |  |  |  |  |  | LC50 Kanzawa spider mite ([1]; kanzawa spider mite, in vivo): 0.485 ppm; LC50 Twospotted spider mite ([2]; twospotted spider mite, in vivo): 0.339 ppm
CCC(C)=CC(=O)OCC1=CC2C(=O)OC3CC(CC=C(C)CC(C)C=CC=C4COC(C1O)C42O)OC1(CCC(C)C(C)O1)C3 (stereo not shown) [KSB-1939H4] | Soluble | Insoluble | Neutral | 100% | 100% | 65% | 100% | 90% | 100% | 3.3 µg/mL (≈ 5.15 µM) |  | mortality at 0.04 ppm [5]: 94.2%; activities (eggs in feces before and after treatment) ([8]; 0.5 mg/kg): 80-90%; activities (eggs in feces before and after treatment) ([8]; 1.0 mg/kg): 100%
CCCC(=O)OCC1=CC2C(=O)OC3CC(CC=C(C)CC(C)C=CC=C4COC(C1O)C42O)OC1(CCC(C)C(C)O1)C3 (stereo not drawn) [KSB-1939L3β] | Soluble | Insoluble | Neutral |  |  |  |  |  |  |  |  | 
CC1=CCC2CC(CC3(CCC(C)C(C)O3)O2)OC(=O)C2C=C(COC(=O)CC(C)C)C(O)C3OCC(=CC=CC(C)C1)C23O (stereo not shown) [KSB-1939H3] | Soluble | Insoluble | Neutral | 100% | 100% |  | 65% |  |  | 1.5 µg/mL (≈ 2.39 µM) | > 5000 mg/kg | mortality at 5 ppm [5]: 100%; mortality at 25 ppm [6]: 100%; mortality at 25 ppm [10]: 100%
CC(C)=CC(=O)OCC1=CC2C(=O)OC3CC(CC=C(C)CC(C)C=CC=C4COC(C1O)C42O)OC1(CCC(C)C(C)O1)C3 (stereo not shown) [KSB-1939H2] | Soluble | Insoluble | Neutral | 100% | 100% | 95% | 100% | 90% | 100% | 3.4 µg/mL (≈ 5.42 µM) | > 5000 mg/kg | mortality at 0.004 ppm ([5]; 0.004 ppm): 70.1%; LC50 [1]: 0.0465 µg/mL (≈ 0.0742 µM); LC50 [2]: 0.0249 µg/mL (≈ 0.0397 µM); activities (eggs in feces before and after treatment) ([12]; oral 0.5 mg/kg): 100%; activities (eggs in feces before and after treatment) ([12]; subcutaneous 0.1 mg/kg): 100%; activities (eggs in feces before and after treatment) ([13]; oral 0.5 mg/kg): 100%; activities (eggs in feces before and after treatment) ([13]; subcutaneous 0.1 mg/kg): 100%; activities (eggs in feces before and after treatment) ([14]; oral 0.1 mg/kg): 100%; activities (eggs in feces before and after treatment) ([14]; subcutaneous 0.05 mg/kg): 100%; LD50 [15]: > 5000 mg/kg
CC1=CCC2CC(CC3(CCC(C)C(C)O3)O2)OC(=O)C2C=C(COC(=O)C(C)C)C(O)C3OCC(=CC=CC(C)C1)C23O (stereo not drawn) [KSB-1939L3α] | Soluble | Insoluble | Neutral |  |  |  |  |  |  |  |  | 
CCC1OC2(CCC1C)CC1CC(CC=C(C)CC(C)C=CC=C3COC4C(O)C(COC(=O)C=C(C)C)=CC(C(=O)O1)C34O)O2 (stereo not shown) [KSB-1939S5] | Soluble | Insoluble | Neutral | 100% | 100% | 85% | 100% |  |  | 3.5 µg/mL (≈ 5.46 µM) | > 5000 mg/kg | mortality at 0.04 ppm [5]: 45.7%; LC50 [1]: 0.0643 µg/mL (≈ 0.1 µM); LC50 [2]: 0.0339 µg/mL (≈ 0.0529 µM)
CC1=C[C@H]2C(=O)O[C@H]3C[C@@H](C/C=C(\C)C[C@@H](C)/C=C/C=C4\CO[C@H]([C@@H]1O)[C@@]42O)O[C@@]1(CC[C@H](C)[C@@H](C(C)C)O1)C3 [Milbemycin D, reference compound] |  |  |  |  |  |  |  |  |  | 7.5 µg/mL (≈ 13.5 µM) |  | 
CC1=CCC2CC(CC3(CCC(C)C(C)O3)O2)OC(=O)C2C=C(COC(=O)CCC(C)C)C(O)C3OCC(=CC=CC(C)C1)C23O (stereo not shown) [KSB-1939H5] | Soluble | Insoluble | Neutral |  | 100% |  |  | 90% | 100% | 1.6 µg/mL (≈ 2.49 µM) |  | mortality at 5 ppm [5]: 100%; mortality at 25 ppm [6]: 95%; mortality at 25 ppm [10]: 100%
